“And” between values parts separate entries of the source, which are not always exact repeats. Identical values can stand only once. Inconclusive results and toxic doses are left out.
System: P388 leukemia ip, CD2F1 mice, survival T/C
Assay: NCI In Vivo Anticancer Drug Screen. Data for tumor model P388 Leukemia (intraperitoneal) in CD2F1 (CDF1) mice
Conditions: endpoint: median survival time, higher = longer survival
In short: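 Mice carrying the transplanted tumor received test compound or vehicle. Survival was recorded in each group, and the value is the treated-group measurement divided by that of the vehicle-treated control group.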

[1] = dose: 100.0 mg/kg/injection, schedule: Q04DX003 (ip), vehicle: saline with Tween-80
[2] = dose: 200.0 mg/kg/injection, schedule: Q04DX003 (ip), vehicle: saline with Tween-80

CCC1=C[C@H]2CN(CCc3c([nH]c4ccccc34)[C@@](C(=O)OC)(c3cc4c(cc3OC)N(C)[C@H]3[C@@](O)(C(=O)NC)[C@H](OC(C)=O)[C@]5(CC)C=CCN6CC[C@]43[C@@H]65)C2)C1
T/C (dose: 0.02 mg/kg/injection, schedule: Q01DX009 (ip), vehicle: water): 102 % of control
T/C (dose: 0.03 mg/kg/injection, schedule: Q01DX009 (ip), vehicle: water): 100 % of control
T/C (dose: 0.12 mg/kg/injection, schedule: Q04DX003 (ip), vehicle: water): 151 % of control
T/C (dose: 0.13 mg/kg/injection, schedule: Q01DX009 (ip), vehicle: water): 114 % of control and 203 % of control
T/C (dose: 0.25 mg/kg/injection, schedule: Q01DX001 (ip), vehicle: water): 110 % of control
T/C (dose: 0.25 mg/kg/injection, schedule: Q01DX009 (ip), vehicle: water): 220 % of control and 192 % of control and 214 % of control
T/C (dose: 0.25 mg/kg/injection, schedule: Q04DX003 (ip), vehicle: water): 187 % of control
T/C (dose: 0.5 mg/kg/injection, schedule: Q01DX001 (ip), vehicle: water): 119 % of control
T/C (dose: 0.5 mg/kg/injection, schedule: Q04DX003 (ip), vehicle: water): 214 % of control
T/C (dose: 1.0 mg/kg/injection, schedule: Q01DX009 (ip), vehicle: water): 87 % of control
T/C (dose: 1.0 mg/kg/injection, schedule: Q04DX003 (ip), vehicle: water): 232 % of control
T/C (dose: 2.0 mg/kg/injection, schedule: Q01DX001 (ip), vehicle: water): 150 % of control
T/C (dose: 4.0 mg/kg/injection, schedule: Q01DX001 (ip), vehicle: water): 154 % of control
T/C (dose: 8.0 mg/kg/injection, schedule: Q01DX001 (ip), vehicle: water): 180 % of control

Cc1ccc(N2C(=O)c3ccccc3NC2(C)CCl)cc1 (stereo not drawn)
T/C (dose: 50.0 mg/kg/injection, schedule: Q01DX009 (ip), vehicle: saline with Tween-80): 103 % of control
T/C (dose: 100.0 mg/kg/injection, schedule: Q01DX009 (ip), vehicle: saline with Tween-80): 103 % of control
T/C (dose: 200.0 mg/kg/injection, schedule: Q01DX009 (ip), vehicle: saline with Tween-80): 112 % of control

Cc1c(NS(=O)(=O)c2ccccc2)c(C)c(NS(=O)(=O)c2ccccc2)c(C)c1NS(=O)(=O)c1ccccc1
T/C (dose: 50.0 mg/kg/injection, schedule: Q04DX003 (ip), vehicle: saline with Tween-80): 100 % of control
T/C [1]: 90 % of control
T/C [2]: 90 % of control

CCCCCCCCCCCCN1C(C)=CS/C1=C\C=C\c1scc(C)[n+]1CCCCCCCCCCCC
T/C (dose: 0.75 mg/kg/injection, schedule: Q01DX005 (ip), vehicle: saline with Tween-80): 110 % of control
T/C (dose: 3.0 mg/kg/injection, schedule: Q01DX005 (ip), vehicle: saline with Tween-80): 119 % of control
T/C (dose: 3.12 mg/kg/injection, schedule: Q04DX002 (ip), vehicle: saline with Tween-80): 150 % of control
T/C (dose: 6.25 mg/kg/injection, schedule: Q04DX002 (ip), vehicle: saline with Tween-80): 150 % of control and 157 % of control
T/C (dose: 12.5 mg/kg/injection, schedule: Q04DX002 (ip), vehicle: saline with Tween-80): 160 % of control and 163 % of control

O/N=C/C1CCCC[N-]1.O/N=C/C1CCCC[N-]1.O/N=C/C1CCCC[N-]1.[Cu] (stereo not drawn)
T/C (dose: 1.56 mg/kg/injection, schedule: Q01DX009 (ip), vehicle: saline): 87 % of control
T/C (dose: 3.12 mg/kg/injection, schedule: Q01DX009 (ip), vehicle: saline): 96 % of control
T/C (dose: 6.25 mg/kg/injection, schedule: Q01DX009 (ip), vehicle: saline): 87 % of control

COC1C(OC2CCC3(C=O)C4CCC5(C)C(C6=CC(=O)OC6)CCC5(O)C4CCC3(O)C2)OC(C)C(O)C1OC (stereo not drawn)
T/C (dose: 0.35 mg/kg/injection, schedule: Q01DX009 (ip), vehicle: saline): 99 % of control
T/C (dose: 0.7 mg/kg/injection, schedule: Q01DX009 (ip), vehicle: saline): 100 % of control
T/C (dose: 1.4 mg/kg/injection, schedule: Q01DX009 (ip), vehicle: saline): 100 % of control
T/C (dose: 2.8 mg/kg/injection, schedule: Q01DX009 (ip), vehicle: saline): 100 % of control

CC(=O)OCC1OC2OC(C)(C)OC2C1O (stereo not drawn)
T/C (dose: 50.0 mg/kg/injection, schedule: Q01DX005 (ip), vehicle: saline): 96 % of control
T/C (dose: 100.0 mg/kg/injection, schedule: Q01DX005 (ip), vehicle: saline): 100 % of control
T/C (dose: 200.0 mg/kg/injection, schedule: Q01DX005 (ip), vehicle: saline): 105 % of control

Cc1ccc(S(=O)(=O)OC2C(COCC(=O)O)OC3OC(C)(C)OC32)cc1 (stereo not drawn)
T/C [1]: 95 % of control
T/C [2]: 95 % of control
T/C (dose: 400.0 mg/kg/injection, schedule: Q04DX003 (ip), vehicle: saline with Tween-80): 90 % of control

COc1ccc(C)cc1NC(=S)C#N
T/C (dose: 60.0 mg/kg/injection, schedule: Q01DX005 (ip), vehicle: saline with Tween-80): 98 % of control
T/C (dose: 120.0 mg/kg/injection, schedule: Q01DX005 (ip), vehicle: saline with Tween-80): 106 % of control

CC1(C)CC(Nc2ccccc2)=CC(Nc2ccccc2)=N1
T/C (dose: 50.0 mg/kg/injection, schedule: Q01DX005 (ip), vehicle: Klucel (hydroxypropylcellulose) (HPC)): 105 % of control
T/C (dose: 100.0 mg/kg/injection, schedule: Q01DX005 (ip), vehicle: Klucel (hydroxypropylcellulose) (HPC)): 98 % of control
T/C (dose: 200.0 mg/kg/injection, schedule: Q01DX005 (ip), vehicle: Klucel (hydroxypropylcellulose) (HPC)): 105 % of control
